Reference: patent US12358907B2, “Substituted pyrrolidine amides III” (GRÜNENTHAL GMBH, priority 2019, dated 2025)
Where two headings read alike, the source gives them in different places.

How the values were obtained:
[1] = biological target: human glucocorticoid receptor (Homo sapiens (Human), UniProt P04150); assay: Human glucocorticoid receptor (hGR) ligand-binding assay (3H-dexamethasone competition, IM9 cytosol); conditions: read-out: % inhibition hGR at 1 μM
Protocol: Preferably, the glucocortitcoid receptor extracted from cytosol of IM9 cells is used for competitive radioligand binding assays to calculate percentage inhibition of the binding of radiolabeled ligand 3H-dexamethasone at the human glucocorticoid receptor.
The human lymphoblast cell line IM9 (ATCC, Bethesda, MD) was cultivated in RPMI 1640 media containing 10% fetal bovine serum, penicillin (100 U/ml), streptomycin (100 μg/ml), and 2 mM L-glutamine at 37° and 7% CO2 in a humidified incubator. Cells were centrifuged for 10 minutes at 1500 g and were washed in PBS and repelleted. Cell were then resuspended in homogenization buffer consisting of: 10 mM TES, 10 mM sodium molybdate, 1 mM EDTA, pH 7.4, 20 mM 2-mercaptoethanol, and 10% glycerol. Disruption of the cells was performed by nitrogen cavitation using 2×15 minutes at 600 to 750 psi nitrogen in a N2 cavitator at 0° C. The cell preparation was then centrifuged at 27,000 g for 15 minutes, and the resultant supernatant (=cytosol of IM9 cells) was centrifuged at 103,000 g for 60 minutes at 4° C. The amount of protein in the supernatant fraction was determined using a BCA assay kit and aliquots were snap frozen in a dry ice-acetone bath and stored at −70° C. Competitive binding assays were done in duplicate in homogenization buffer with a total volume of 200 μl. To this end, 1 mg of IM9 cytosol, 0.05 μCi (1.5 nM) of 3H-dexamethasone and unlabeled Example compounds as competitor compounds at 1 μM were mixed. The reaction was stopped after incubation at 0° C. for 16 to 18 hours by the addition of 100 μl of a charcoal-dextran mixture (2% activated charcoal, 0.5% dextran in 10 mM Tris, 1 mM EDTA, pH 7.4). Another incubation step at 0° C. for 10 minutes followed before the samples were centrifuged for 5 minutes at 8200 g. 100 μl of the supernatant) was finally assayed for radioactivity by liquid scintillationspectrometry, and percentage inhibition of 3H-dexamethasone binding was calculated.

[2] = biological target: glucocorticoid receptor (GAL4 DBD-GR) (Homo sapiens (Human), UniProt P04150); assay: GR cell-based assays (GRE agonist / GRE antagonist), CHO-Gal4/GR luciferase reporter
In short: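 CHO cells stably carrying GAL4 DBD-GR ligand-binding-domain fusion and a GAL4-UAS firefly luciferase reporter were treated in Opti-MEM with 8 half-log concentrations from 10 μM to 0.003 μM (0.5% DMSO, quadruplicates). Antagonist mode measured repression of beclomethasone-induced signal. Luminescence after lysis gave EC50 or IC50.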

Chain of human glucocorticoid receptor (P04150 whole entry): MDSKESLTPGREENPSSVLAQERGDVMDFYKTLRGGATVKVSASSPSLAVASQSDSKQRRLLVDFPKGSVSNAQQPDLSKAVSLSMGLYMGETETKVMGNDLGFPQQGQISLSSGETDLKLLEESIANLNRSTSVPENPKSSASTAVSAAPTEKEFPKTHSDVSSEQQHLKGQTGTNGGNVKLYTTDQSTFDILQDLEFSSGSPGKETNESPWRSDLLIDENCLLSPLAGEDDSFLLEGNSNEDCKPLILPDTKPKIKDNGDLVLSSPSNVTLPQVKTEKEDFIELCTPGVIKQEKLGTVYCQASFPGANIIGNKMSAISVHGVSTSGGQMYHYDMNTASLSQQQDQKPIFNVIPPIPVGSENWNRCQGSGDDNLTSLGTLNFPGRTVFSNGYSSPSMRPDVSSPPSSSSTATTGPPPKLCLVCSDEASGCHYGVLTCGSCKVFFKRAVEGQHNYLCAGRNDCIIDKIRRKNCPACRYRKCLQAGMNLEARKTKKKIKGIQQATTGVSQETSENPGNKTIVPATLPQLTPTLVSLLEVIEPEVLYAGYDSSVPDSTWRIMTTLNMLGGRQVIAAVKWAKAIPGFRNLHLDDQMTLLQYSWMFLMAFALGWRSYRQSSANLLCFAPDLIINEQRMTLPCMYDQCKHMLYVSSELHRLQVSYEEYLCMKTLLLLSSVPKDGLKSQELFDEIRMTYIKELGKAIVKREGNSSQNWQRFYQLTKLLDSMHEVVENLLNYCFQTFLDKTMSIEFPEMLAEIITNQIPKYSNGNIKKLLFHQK
Chain of glucocorticoid receptor (GAL4 DBD-GR) (P04150 524-758): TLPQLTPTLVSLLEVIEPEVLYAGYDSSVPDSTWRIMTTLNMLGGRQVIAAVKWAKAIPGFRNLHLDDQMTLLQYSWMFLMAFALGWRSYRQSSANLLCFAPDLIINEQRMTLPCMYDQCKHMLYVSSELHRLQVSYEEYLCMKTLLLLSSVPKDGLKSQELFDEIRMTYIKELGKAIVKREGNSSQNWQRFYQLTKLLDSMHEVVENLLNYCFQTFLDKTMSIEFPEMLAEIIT

Structure (SMILES)	inhibition at 1 µM [1]	IC50 ([2]; read-out: IC50 or EC50)	IC50 ([2]; CHO-Gal4/GR reporter cells, agonist mode (EC50) or antagonist mode against beclometasone (IC50), 6 hour incubation)
O=C(N[C@@H]1[C@@H](c2ccccc2)N(c2ccc3c(ccn3-c3ccc(F)cc3)c2)C(=O)C12CC2)C1CC1 (racemic) [Example 5, N-trans-(5-(1-(4-fluorophenyl)-1H-indol-5-yl)-4-oxo-6-phenyl-5-azaspiro[2.4]heptan-7-yl)cyclopropanecarboxamide]	95%	100 to 1000 nM	–
CC1(C)C(=O)N(c2ccc3c(cnn3-c3ccc(F)cc3)c2)[C@H](c2ccccc2)[C@H]1NC(=O)C1CC1 [Example 1, N-[(2R,3S)-1-[1-(4-Fluorophenyl)-1H-indazol-5-yl]-4,4-dimethyl-5-oxo-2-phenyl-pyrrolidin-3-yl]-cyclopropanecarboxylic acid amide]	99%	–	< 100 nM
CC1(C)C(=O)N(c2ccc3c(cnn3-c3ccc(F)cc3)c2)[C@@H](c2ccccc2)[C@@H]1NC(=O)C1CC1 [Example 2, N-[(2S,3R)-1-[1-(4-Fluorophenyl)-1H-indazol-5-yl]-4,4-dimethyl-5-oxo-2-phenyl-pyrrolidin-3-yl]-cyclopropanecarboxylic acid amide]	91%	100 to 1000 nM	–
CC(F)(F)C(=O)N[C@H]1[C@H](c2ccccc2)N(c2ccc3c(cnn3-c3ccc(F)cc3)c2)C(=O)C1(C)C [Example 4, 2,2-Difluoro-N-[(2S,3R)-1-[1-(4-fluorophenyl)-1H-indazol-5-yl]-4,4-dimethyl-5-oxo-2-phenyl-pyrrolidin-3-yl]-propionamide]	95%	100 to 1000 nM	–
Cc1cnc(C(=O)N[C@@H]2[C@@H](c3ccccc3)N(c3ccc4c(cnn4-c4ccc(=O)n(C)c4)c3)C(=O)C2(C)C)s1 [Example 6, N-[(2R,3S)-4,4-Dimethyl-1-[1-(1-methyl-6-oxo-1H-pyridin-3-yl)-1H-indazol-5-yl]-5-oxo-2-phenyl-pyrrolidin-3-yl]-5-methyl-thiazole-2-carboxylic acid amide]	97%	100 to 1000 nM	–
Cc1cc(C(=O)N[C@@H]2[C@@H](c3ccccc3)N(c3ccc4c(cnn4-c4ccc(=O)n(C)c4)c3)C(=O)C2(C)C)no1 [Example 7, N-((2R,3S)-4,4-dimethyl-1-(1-(1-methyl-6-oxo-1,6-dihydropyridin-3-yl)-1H-indazol-5-yl)-5-oxo-2-phenylpyrrolidin-3-yl)-5-methylisoxazole-3-carboxamide]	96%	1000 to 15000 nM	–
